Reference: ChEMBL document CHEMBL5532638, “Current development of 1,2,3-triazole derived potential antimalarial scaffolds: Structure- activity relationship (SAR) and bioactive compounds” (Eur J Med Chem, 2023)
≈ marks a conversion by molar mass, not a printed value.

Assays:
Plasmodium falciparum [1] = assay: Antiplasmodial activity against CQ-resistant Plasmodium falciparum FCR-3/Gambia subline F-86 infected in erythrocytes assessed as parasite growth inhibition incubated for 24 hrs by [3H]-hypoxanthine incorporation assay; type: functional, organism-based; settings: FCR-3/Gambia subline F-86, Erythrocyte
Plasmodium falciparum [2] = assay: Antiplasmodial activity against CQ-resistant Plasmodium falciparum 2/K-1 infected in human O+ red blood cells assessed as parasite growth inhibition incubated for 72 hrs by Malstat assay; type: functional, organism-based, Red blood cell; settings: 2/K-1, Erythrocyte
Plasmodium falciparum [3] = assay: Antiplasmodial activity against CQ-sensitive Plasmodium falciparum F32 Tanzania assessed as parasite growth inhibition incubated for 48 hrs; type: functional, organism-based, RBC; settings: Erythrocyte
Plasmodium falciparum [4] = assay: Antiplasmodial activity against CQ-sensitive Plasmodium falciparum 3D7 at trophozoite stage infected in human O+ RBCs assessed as parasite growth inhibition by SYBR Green I staining based analysis; type: functional, organism-based, RBC; settings: 3D7, Erythrocyte
Plasmodium falciparum [5] = assay: Antiplasmodial activity against CQ-resistant Plasmodium falciparum RKL-9 at trophozoite stage infected in human O+ RBCs assessed as parasite growth inhibition by SYBR Green I staining based analysis; type: functional, organism-based, RBC; settings: RKL-9, Erythrocyte
Plasmodium falciparum [6] = assay: Antiplasmodial activity against CQ-resistant Plasmodium falciparum K1 assessed as parasite growth inhibition; type: functional, organism-based
[7] = Cytotoxicity against African green monkey Vero cells; type: toxicity, cell-based; settings: chlorocebus sabaeus
Plasmodium falciparum [8] = assay: Antiplasmodial activity against Plasmodium falciparum 3D7 assessed as parasite growth inhibition incubated for 24 hrs by [3H]-hypoxanthine incorporation assay; type: functional, organism-based
[9] = Cytotoxicity against human Huh-7 cells incubated for 48 hrs by MTT assay; type: toxicity, cell-based
Falcipain 2 = target: T1, Falcipain 2 (Plasmodium falciparum, UniProt Q9N6S8); assay: Inhibition of recombinant Plasmodium falciparum FP2
T1 sequence (Q9N6S8 whole entry): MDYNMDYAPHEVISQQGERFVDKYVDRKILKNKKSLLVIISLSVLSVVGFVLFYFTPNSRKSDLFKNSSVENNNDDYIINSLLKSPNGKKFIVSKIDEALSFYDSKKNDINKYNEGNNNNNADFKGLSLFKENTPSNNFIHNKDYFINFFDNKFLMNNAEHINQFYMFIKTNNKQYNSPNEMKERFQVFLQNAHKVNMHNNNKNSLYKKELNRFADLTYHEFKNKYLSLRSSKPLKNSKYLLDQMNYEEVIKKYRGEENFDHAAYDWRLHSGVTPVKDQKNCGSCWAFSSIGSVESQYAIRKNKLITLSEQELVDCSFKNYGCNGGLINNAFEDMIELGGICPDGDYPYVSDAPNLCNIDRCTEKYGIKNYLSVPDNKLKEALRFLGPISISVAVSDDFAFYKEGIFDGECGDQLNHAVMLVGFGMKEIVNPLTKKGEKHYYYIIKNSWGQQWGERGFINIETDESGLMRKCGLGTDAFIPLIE

Plasmodium falciparum [10] = assay: Antiplasmodial activity against Plasmodium falciparum 3D7 assessed as parasite growth inhibition; type: functional, organism-based
[11] = Selectivity index, ratio of CC50 for human erythrocytes to IC50 for Plasmodium falciparum Dd2; type: toxicity; settings: read-out: Ratio CC50/IC50
Plasmodium falciparum [12] = assay: Antiplasmodial activity against CQ-sensitive Plasmodium falciparum 3D7 infected in red blood cells assessed as parasite growth inhibition incubated for 72 hrs by SYBR Green I staining based analysis; type: functional, organism-based, Red blood cell; settings: 3D7, Erythrocyte
Plasmodium falciparum [13] = assay: Antiplasmodial activity against CQ-resistant Plasmodium falciparum W2 infected in red blood cells assessed as parasite growth inhibition incubated for 72 hrs by SYBR Green I staining based analysis; type: functional, organism-based, Red blood cell; settings: W2, Erythrocyte
Plasmepsin II = Plasmepsin II (Plasmodium falciparum, UniProt P46925); assay: Inhibition of Plasmodium falciparum Plm-II using DABCYL-Glu-Arg-Nle-Phe-Leu-Ser-Phe-Pro-EDANS as substrate preincubated for 30 mins followed by substrate addition measured after 8 to 15 mins by FRET assay
Plasmodium falciparum [14] = assay: Antiplasmodial activity against CQ-sensitive Plasmodium falciparum 3D7 assessed as parasite growth inhibition; type: functional, organism-based

Sequence of Plasmepsin II (P46925 whole entry): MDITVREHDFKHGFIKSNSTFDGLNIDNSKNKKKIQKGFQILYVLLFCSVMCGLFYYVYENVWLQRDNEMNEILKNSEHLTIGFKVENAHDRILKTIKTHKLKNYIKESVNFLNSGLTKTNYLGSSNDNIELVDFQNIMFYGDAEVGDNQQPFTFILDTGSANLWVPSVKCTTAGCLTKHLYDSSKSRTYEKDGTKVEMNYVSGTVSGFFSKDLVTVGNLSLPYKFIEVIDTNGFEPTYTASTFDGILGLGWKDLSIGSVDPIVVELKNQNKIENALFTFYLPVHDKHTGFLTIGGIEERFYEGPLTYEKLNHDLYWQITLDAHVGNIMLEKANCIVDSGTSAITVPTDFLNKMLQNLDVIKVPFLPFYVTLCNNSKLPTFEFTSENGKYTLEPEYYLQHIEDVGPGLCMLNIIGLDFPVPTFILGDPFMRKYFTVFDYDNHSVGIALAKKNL

C[C@@H]1[C@@H](n2cc(-c3cccc(Cl)c3)nn2)O[C@@H]2O[C@]3(C)CC[C@H]4[C@H](C)CC[C@@H]1[C@@]24OO3
IC50 (Plasmodium falciparum [1]): 2.5 nM

C[C@H]1[C@H](n2nncc2-c2cccc(Cl)c2)O[C@@H]2O[C@]3(C)CC[C@H]4[C@H](C)CC[C@@H]1[C@@]24OO3
IC50 (Plasmodium falciparum [1]): 4.2 nM

CCc1nnc2ccc(S(=O)(=O)N(Cc3cccc(F)c3)c3ccc(OC)cc3)cn12
IC50 (Plasmodium falciparum [2]): 4980 nM

O=C1C=C(OCc2cn(-c3ccccc3)nn2)C(=O)c2ccccc21
IC50 (Plasmodium falciparum [3]): 1200 nM

COc1ccc(-n2cc(COC3=CC(=O)c4ccccc4C3=O)nn2)cc1F
IC50 (Plasmodium falciparum [3]): 800 nM

COc1ccccc1C(=O)/C=C/c1cn(Cc2cn(-c3ccnc4cc(Cl)ccc34)nn2)c2ccccc12
IC50 (Plasmodium falciparum [4]): 2400 nM
IC50 (Plasmodium falciparum [5]): 3500 nM

Cc1ccccc1C(=O)/C=C/c1cn(Cc2cn(-c3ccnc4cc(Cl)ccc34)nn2)c2ccccc12
IC50 (Plasmodium falciparum [4]): 1800 nM
IC50 (Plasmodium falciparum [5]): 2700 nM

COc1cc(/C=C/C(=O)c2ccc(Cl)cc2)ccc1OCc1cn(-c2ccnc3cc(Cl)ccc23)nn1
IC50 (Plasmodium falciparum [6]): 3140 nM
CC50 [7]: 46200 nM

Cc1ccc(OCc2cn(-c3ccc(S(N)(=O)=O)cc3)nn2)cc1
IC50 (Plasmodium falciparum [8]): 6.2 µg/mL (≈ 18 µM)
CC50 at 48 h [9]: 7.5 µg/mL (≈ 21.8 µM)

O=[N+]([O-])c1ccc(-n2cc(COc3cccc4nc(Cl)ccc34)nn2)cc1
IC50 (Falcipain 2): 16200 nM
IC50 (Plasmodium falciparum [10]): 49900 nM

O=[N+]([O-])c1ccc(Cn2cc(CO)nn2)cc1
selectivity ratio [11]: 161

OB1OCc2cc(OCc3cn(CCCNc4ccnc5cc(Cl)ccc45)nn3)ccc21
IC50 (Plasmodium falciparum [12]): 4130 nM
IC50 (Plasmodium falciparum [13]): 3910 nM

C[C@H]1[C@@H](n2cc(-c3cccc(Cl)c3)nn2)O[C@@H]2O[C@]3(C)CC[C@H]4[C@H](C)CC[C@@H]1[C@@]24OO3
IC50 (Plasmodium falciparum [1]): 3.7 nM

CCCCCc1ccc(-n2nnc(CCN(CC)CC)c2Cc2ccc(-c3ccc(OC)cc3)cc2)cc1
IC50 (Plasmepsin II): 600 nM

O=S(=O)(c1ccc(-n2cc(COc3ccc(I)cc3)nn2)cc1)N1CCN(c2ccccc2)CC1
IC50 (Plasmodium falciparum [8]): 12.9 µg/mL (≈ 21.4 µM)

CCCCCc1ccc(-n2nnc(CCN3CCCC3)c2Cc2ccc(-c3ccc(OC)cc3)cc2)cc1
IC50 (Plasmepsin II): 600 nM

C[C@H](Cn1cc(C(C)(C)O)nn1)C1CCC2[C@@H](O)CCC[C@]12C (some centres not stated)
IC50 (Plasmodium falciparum [14]): 20 nM

ClCCCCn1cc(-c2ccccc2)nn1
IC50 (Plasmodium falciparum [14]): 3290 nM

O=c1n(Cc2cccc(Cl)c2)nc2c(S(=O)(=O)N3CCCCC3)cccn12
IC50 (Plasmodium falciparum [2]): 2240 nM

Cc1cc(C)nc(NS(=O)(=O)c2ccc(-n3cc(COc4ccc(Cl)cc4Cl)nn3)cc2)n1
IC50 (Plasmodium falciparum [8]): 16.7 µg/mL (≈ 33 µM)

CCCCCc1ccc(-n2nnc(CCN3CCN(C)CC3)c2Cc2ccc(-c3ccc(OC)cc3)cc2)cc1
IC50 (Plasmepsin II): 1800 nM
